Results as given in ChEMBL document CHEMBL3217516, “Library synthesis and cytotoxicity of a family of 2-phenylacrylonitriles and discovery of an estrogen dependent breast cancer lead compound” (Medchemcomm, 2011).

Assays:
[1] = system: MCF7; assay: Selectivity ratio of GI50 for human MDA-MB-231 cells to GI50 for human MCF7 cells; format: functional
[2] = Cytotoxicity against human MCF10A cells after 72 hrs by MTT assay; format: cell-based, MCF-10A
[3] = system: MCF7; assay: Selectivity ratio of GI50 for human MIA cells to GI50 for human MCF7 cells; format: functional
[4] = system: A2780; assay: Selectivity ratio of GI50 for human A2780 cells to GI50 for human MCF7 cells; format: functional
[5] = Cytotoxicity against human MIA cells after 72 hrs by MTT assay; format: functional
[6] = system: MCF7; assay: Selectivity ratio of GI50 for human BE(2)-C cells to GI50 for human MCF7 cells; format: functional
[7] = system: MCF7; assay: Selectivity ratio of GI50 for human SW480 cells to GI50 for human MCF7 cells; format: functional
[8] = system: MCF7; assay: Selectivity ratio of GI50 for human A431 cells to GI50 for human MCF7 cells; format: functional
[9] = system: MCF7; assay: Selectivity ratio of GI50 for human H460 cells to GI50 for human MCF7 cells; format: functional
[10] = system: DU-145; assay: Selectivity ratio of GI50 for human DU145 cells to GI50 for human MCF7 cells; format: functional
[11] = Selectivity ratio of GI50 for human MCF10A cells to GI50 for human MCF7 cells; format: ADME, cell-based, MCF-10A; details: MCF10A cells and MCF7 cells, read-out: RatioGI50
[12] = system: MCF7; assay: Selectivity ratio of GI50 for human SJ-G2 cells to GI50 for human MCF7 cells; format: functional
[13] = system: MCF7; assay: Selectivity ratio of GI50 for human HT29 cells to GI50 for human MCF7 cells; format: functional
[14] = Cytotoxicity against human MDA-MB-231 cells after 72 hrs by MTT assay; format: cell-based
[15] = Cytotoxicity against human MIA cells at 100 uM after 72 hrs by MTT assay; format: functional; details: read-out: GI
[16] = system: MCF7; assay: Cytotoxicity against human MCF7 cells at 100 uM after 72 hrs by MTT assay; format: functional; details: MCF7, 72 h, read-out: GI
[17] = Cytotoxicity against human H460 cells at 100 uM after 72 hrs by MTT assay; format: functional; details: NCI-H460, 72 h, read-out: GI
[18] = system: HT-29; assay: Cytotoxicity against human HT-29 cells at 100 uM after 72 hrs by MTT assay; format: functional; details: HT-29, 72 h, read-out: GI
[19] = system: A-431; assay: Cytotoxicity against human A431 cells at 100 uM after 72 hrs by MTT assay; format: functional; details: A-431, 72 h, read-out: GI
[20] = Cytotoxicity against human SJ-G2 cells at 100 uM after 72 hrs by MTT assay; format: functional; details: SJ-G2, 72 h, read-out: GI
[21] = Cytotoxicity against human BE(2)-C cells at 100 uM after 72 hrs by MTT assay; format: functional; details: read-out: GI
[22] = system: SW480; assay: Cytotoxicity against human SW480 cells at 100 uM after 72 hrs by MTT assay; format: functional; details: SW480, 72 h, read-out: GI
[23] = system: DU-145; assay: Cytotoxicity against human DU145 cells at 100 uM after 72 hrs by MTT assay; format: functional; details: DU-145, 72 h, read-out: GI
[24] = system: A2780; assay: Cytotoxicity against human A2780 cells at 100 uM after 72 hrs by MTT assay; format: functional; details: A2780, 72 h, read-out: GI
[25] = system: DU-145; assay: Selectivity ratio of GI50 for human DU145 cells to GI50 for human HT29 cells; format: functional
[26] = system: DU-145; assay: Selectivity ratio of GI50 for human DU145 cells to GI50 for human BE(2)-C cells; format: functional
[27] = system: DU-145; assay: Selectivity ratio of GI50 for human H460 cells to GI50 for human DU145 cells; format: functional
[28] = system: A2780; assay: Selectivity ratio of GI50 for human H460 cells to GI50 for human A2780 cells; format: functional
[29] = system: DU-145; assay: Cytotoxicity against human DU145 cells after 72 hrs by MTT assay; format: functional; details: DU-145, 72 h
[30] = system: A2780; assay: Selectivity ratio of GI50 for human DU145 cells to GI50 for human A2780 cells; format: functional
[31] = system: A-431; assay: Cytotoxicity against human A431 cells after 72 hrs by MTT assay; format: functional; details: A-431, 72 h
[32] = system: DU-145; assay: Selectivity ratio of GI50 for human DU145 cells to GI50 for human MIA cells; format: functional
[33] = system: HT-29; assay: Cytotoxicity against human HT-29 cells after 72 hrs by MTT assay; format: functional; details: HT-29, 72 h
[34] = system: DU-145; assay: Selectivity ratio of GI50 for human DU145 cells to GI50 for human H460 cells; format: functional
[35] = Selectivity ratio of GI50 for human H460 cells to GI50 for human MIA cells; format: functional
[36] = Selectivity ratio of GI50 for human H460 cells to GI50 for human BE(2)-C cells; format: functional
[37] = system: SW480; assay: Selectivity ratio of GI50 for human DU145 cells to GI50 for human SW480 cells; format: functional
[38] = Selectivity ratio of GI50 for human H460 cells to GI50 for human A431 cells; format: functional
[39] = system: SW480; assay: Cytotoxicity against human SW480 cells after 72 hrs by MTT assay; format: functional; details: SW480, 72 h
[40] = Selectivity ratio of GI50 for human H460 cells to GI50 for human SJ-G2 cells; format: functional
[41] = system: A2780; assay: Cytotoxicity against human A2780 cells after 72 hrs by MTT assay; format: functional; details: A2780, 72 h
[42] = system: HT-29; assay: Selectivity ratio of GI50 for human H460 cells to GI50 for human HT29 cells; format: functional
[43] = Cytotoxicity against human BE(2)-C cells after 72 hrs by MTT assay; format: functional
[44] = system: DU-145; assay: Selectivity ratio of GI50 for human DU145 cells to GI50 for human SJ-G2 cells; format: functional
[45] = Cytotoxicity against human H460 cells after 72 hrs by MTT assay; format: functional; details: NCI-H460, 72 h
[46] = system: MCF7; assay: Cytotoxicity against human MCF7 cells after 72 hrs by MTT assay; format: functional; details: MCF7, 72 h
[47] = system: SW480; assay: Selectivity ratio of GI50 for human H460 cells to GI50 for human SW480 cells; format: functional
[48] = system: DU-145; assay: Selectivity ratio of GI50 for human DU145 cells to GI50 for human A431 cells; format: functional
[49] = Cytotoxicity against human SJ-G2 cells after 72 hrs by MTT assay; format: functional; details: SJ-G2, 72 h

Row | Structure (SMILES) | GI50 [5] [µM] | inhibition of growth at 100 µM [15] [%] | inhibition of growth at 100 µM [16] [%] | inhibition of growth at 100 µM [17] [%] | inhibition of growth at 100 µM [18] [%] | inhibition of growth at 100 µM [19] [%] | inhibition of growth at 100 µM [20] [%] | inhibition of growth at 100 µM [21] [%] | inhibition of growth at 100 µM [22] [%] | inhibition of growth at 100 µM [23] [%] | inhibition of growth at 100 µM [24] [%] | GI50 [29] [µM] | GI50 [31] [µM] | GI50 [33] [µM] | GI50 [39] [µM] | GI50 [41] [µM] | GI50 [43] [µM] | GI50 [45] [µM] | GI50 [46] [µM] | GI50 [49] [µM] | also measured
1 | N#C/C(=C\c1ccc([N+](=O)[O-])cc1)c1ccc(Cl)c(Cl)c1 | 27 | – | – | – | – | – | – | – | – | – | – | – | – | – | – | – | – | – | – | – | RatioGI50 [1]: 268; GI50 at 72 h [2]: 16 µM; RatioGI50 [3]: 543; RatioGI50 [4]: 543; RatioGI50 [6]: 543; RatioGI50 [7]: 543; RatioGI50 [8]: 543; RatioGI50 [9]: 543; RatioGI50 [10]: 543; selectivity ratio [11]: 126; RatioGI50 [12]: 543; RatioGI50 [13]: 25; GI50 at 72 h [14]: 34 µM
2 | N#CC(Cc1ccc[nH]1)c1ccccc1 (centres undefined) | – | 30 | 47 | 15 | 39 | 20 | 27 | 43 | 40 | 7 | 76 | – | – | – | – | – | – | – | – | – | –
3 | N#CC(Cc1ccc[nH]1)c1ccc(Cl)c(Cl)c1 (centres undefined) | – | 20 | 84 | 55 | 51 | 44 | 33 | 42 | 34 | 24 | 63 | – | – | – | – | – | – | – | – | – | –
4 | CCCCCCCCC/C=C(\C#N)c1ccc(Cl)c(Cl)c1 | – | 22 | 49 | 100 | 53 | 88 | 70 | 73 | 68 | 87 | 24 | – | – | – | – | – | – | – | – | – | –
5 | N#C/C(=C\c1cccc(Cl)c1)c1ccc(Cl)c(Cl)c1 | 15 | – | – | – | – | – | – | – | – | – | – | 55 | 16 | 8.4 | 8.9 | 11 | 12 | 40 | 7.2 | 12 | RatioGI50 [25]: 5; RatioGI50 [26]: 5; RatioGI50 [27]: 5; RatioGI50 [28]: 5; RatioGI50 [30]: 5; RatioGI50 [32]: 5; RatioGI50 [34]: 5; RatioGI50 [35]: 5; RatioGI50 [36]: 5; RatioGI50 [37]: 5; RatioGI50 [38]: 5; RatioGI50 [40]: 5; RatioGI50 [42]: 5; RatioGI50 [44]: 5; RatioGI50 [47]: 5; RatioGI50 [48]: 5
6 | N#CC(Cc1ccc[nH]1)c1ccc(F)cc1 (centres undefined) | 90 | – | – | – | – | – | – | – | – | – | – | 91 | 89 | 73 | 78 | 69 | 75 | 88 | 65 | 86 | –
7 | N#C/C(=C\c1ccc[nH]1)c1ccc(Cl)c(Cl)c1 | 46 | – | – | – | – | – | – | – | – | – | – | 41 | 3.2 | 15 | 23 | 16 | 25 | 5.7 | 0.56 | 20 | RatioGI50 [1]: 268; GI50 at 72 h [2]: 28 µM; selectivity ratio [11]: 126; GI50 at 72 h [14]: 46 µM
8 | N#C/C(=C\c1ccccc1)c1ccc(Cl)c(Cl)c1 | – | 61 | 79 | 36 | 56 | 71 | 72 | 47 | 67 | 36 | 62 | – | – | – | – | – | – | – | – | – | –
